Data published in patent publication US11535599B2, “Benzisoxazole derivative” (Sumitomo Pharma Co., Ltd., priority 2020, dated 2022).

Assays:
[1] = test system: subthalamic nucleus neuron; assay: Effect for inhibiting neuronal firing in mouse brain slice (patch-clamp); type: cell-based; settings: 500 μmol/L
Experimental: (§1) The action of the present compound for regulating the voluntary firing frequency in subthalamic nucleus neuron and cerebellar Purkinje cell was measured by patch-clamp method in mouse brain slice. […] As stimulus protocol, a current of +200 pA or +400 pA was added thereto for 400 milliseconds and the raised action potential was recorded. […] The stimulus-controlled and digitized action potential was recorded with Clampex software (Version 10.2) (all instruments are from Molecular Device Corporation, Union City, Calif., USA). […] In the measurement after adding the compound of Example 13, the action potential was recorded after the record solution containing the compound of Example 13 was perfused for more than 10 minutes. In the analyses, the percentage of the spike firing frequency (Hz) for the current stimulation after adding the compound of Example 13, per the spike firing frequency (Hz) for the current stimulation before adding the compound of Example 13, was calculated, which was defined as a change rate of spike firing frequency in each cell.

[2] = test system: cerebellar Purkinje cell; assay: as above; type: cell-based; settings: 500 μmol/L
Experimental: as §1

C[C@H](c1noc2ccccc12)S(N)(=O)=O [Example 13, (1R)-1-(1,2-benzoxazol-3-yl)ethane-1-sulfonamide]
spike firing frequency in subthalamic nucleus neuron [1]: significantly inhibited the spike firing frequency | spike firing frequency in cerebellar Purkinje cell [2]: significantly inhibited the spike firing frequency
